Laboratory results taken from ChEMBL document CHEMBL4507310, “Data for DCP probe A-1211212” (2021).

Tests used:
Bcl-2-like protein 1 = Bcl-2-like protein 1 (Homo sapiens, UniProt Q07817); assay: Time-resolved fluorescence energy transfer (TR-FRET) with BCL2L1
[1] = target: Adenosine receptor A1 (Homo sapiens) (UniProt P30542); assay: A1 (h) Eurofins-Cerep binding assay; set-up: ligand concentration 1 nM; settings: filed as antagonist, Compound concentration 10.0 uM
[2] = target: T1, Alpha-2B adrenergic receptor (Homo sapiens) (UniProt P18089); assay: Alpha2B (h) Eurofins-Cerep binding assay; set-up: ligand concentration 2.5 nM; settings: filed as antagonist, Compound concentration 10.0 uM
T1 sequence (whole entry): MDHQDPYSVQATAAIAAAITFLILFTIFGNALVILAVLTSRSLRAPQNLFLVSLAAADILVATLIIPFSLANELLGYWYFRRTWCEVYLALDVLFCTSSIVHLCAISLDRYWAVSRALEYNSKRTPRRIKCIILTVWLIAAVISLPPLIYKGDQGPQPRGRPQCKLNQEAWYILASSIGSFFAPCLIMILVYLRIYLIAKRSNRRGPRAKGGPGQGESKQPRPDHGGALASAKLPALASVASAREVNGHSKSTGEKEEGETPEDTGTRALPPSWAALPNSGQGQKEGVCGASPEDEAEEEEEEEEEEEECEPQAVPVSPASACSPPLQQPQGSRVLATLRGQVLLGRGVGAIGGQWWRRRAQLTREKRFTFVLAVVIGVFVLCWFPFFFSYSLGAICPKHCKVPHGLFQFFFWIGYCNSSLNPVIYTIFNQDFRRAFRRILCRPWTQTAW

[3] = target: Beta-1 adrenergic receptor (Homo sapiens) (UniProt P08588); assay: Beta1 (h) Eurofins-Cerep binding assay; set-up: ligand concentration 0.3 nM; settings: filed as agonist, Compound concentration 10.0 uM
[4] = target: D(1A) dopamine receptor (Homo sapiens) (UniProt P21728); assay: D1 (h) Eurofins-Cerep binding assay; set-up: ligand concentration 0.3 nM; settings: filed as antagonist, Compound concentration 10.0 uM
[5] = target: T2, Muscarinic acetylcholine receptor M5 (Homo sapiens) (UniProt P08912); assay: M5 (h) Eurofins-Cerep binding assay; set-up: ligand concentration 0.3 nM; settings: filed as antagonist, Compound concentration 10.0 uM
T2 sequence (whole entry): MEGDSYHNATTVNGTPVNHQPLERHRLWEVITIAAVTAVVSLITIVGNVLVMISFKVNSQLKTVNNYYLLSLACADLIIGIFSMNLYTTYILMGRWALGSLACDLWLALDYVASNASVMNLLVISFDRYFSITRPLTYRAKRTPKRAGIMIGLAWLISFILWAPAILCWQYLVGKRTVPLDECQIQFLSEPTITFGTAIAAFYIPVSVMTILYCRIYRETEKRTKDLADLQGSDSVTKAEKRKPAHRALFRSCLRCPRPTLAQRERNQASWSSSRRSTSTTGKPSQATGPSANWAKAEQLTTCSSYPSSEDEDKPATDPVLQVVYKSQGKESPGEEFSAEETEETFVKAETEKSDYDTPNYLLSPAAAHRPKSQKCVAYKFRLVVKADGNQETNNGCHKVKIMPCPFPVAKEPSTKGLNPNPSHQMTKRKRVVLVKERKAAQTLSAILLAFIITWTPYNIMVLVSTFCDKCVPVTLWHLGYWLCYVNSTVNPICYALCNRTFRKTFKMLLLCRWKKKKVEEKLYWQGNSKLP

Na+ channel (site 2) = Na+ channel (site 2) (Rattus norvegicus, UniProt F1LQQ7+O08562+O88420+O88457+P04774+P04775+P08104+P15389+P15390+Q62968); assay: Na+ channel (site 2) Eurofins-Cerep binding assay; assay type: protein assay; set-up: incubation time 60 min, incubation temperature 37°C, ligand concentration 10 nM; settings: rat cerebral cortex, probe [3H]batrachotoxin (10 nM), compound concentration 10 uM, read-out: % Inhibition of Control Specific Binding (Mean n=2)
[6] = target: AP2-associated protein kinase 1 (Homo sapiens) (UniProt Q2M2I8); settings: Compound concentration 1000.0 nM
[7] = system: Tyrosine-protein kinase ABL1 (Homo sapiens), P00519 [M351T]; settings: Compound concentration 1000.0 nM
[8] = target: Cyclin-dependent kinase 11B (Homo sapiens) (UniProt P21127); settings: Compound concentration 1000.0 nM
[9] = target: Cyclin-dependent kinase 3 (Homo sapiens) (UniProt Q00526); settings: Compound concentration 1000.0 nM
[10] = target: Cyclin-dependent kinase-like 2 (Homo sapiens) (UniProt Q92772); settings: Compound concentration 1000.0 nM
[11] = target: Dual specificity protein kinase CLK3 (Homo sapiens) (UniProt P49761); settings: Compound concentration 1000.0 nM
[12] = target: Casein kinase I isoform alpha-like (Homo sapiens) (UniProt Q8N752); settings: Compound concentration 1000.0 nM
[13] = target: Receptor tyrosine-protein kinase erbB-3 (Homo sapiens) (UniProt P21860); settings: Compound concentration 1000.0 nM
[14] = target: Vascular endothelial growth factor receptor 1 (Homo sapiens) (UniProt P17948); settings: Compound concentration 1000.0 nM
[15] = target: Beta-adrenergic receptor kinase 1 (Homo sapiens) (UniProt P25098); settings: Compound concentration 1000.0 nM
[16] = target: Serine/threonine-protein kinase haspin (Homo sapiens) (UniProt Q8TF76); settings: Compound concentration 1000.0 nM
[17] = target: Homeodomain-interacting protein kinase 1 (Homo sapiens) (UniProt Q86Z02); settings: Compound concentration 1000.0 nM
[18] = system: Mast/stem cell growth factor receptor Kit (Homo sapiens), P10721 [A829P]; settings: Compound concentration 1000.0 nM
[19] = target: Serine/threonine-protein kinase LATS1 (Homo sapiens) (UniProt O95835); settings: Compound concentration 1000.0 nM
[20] = system: Leucine-rich repeat serine/threonine-protein kinase 2 (Homo sapiens), Q5S007 [G2019S]; settings: Compound concentration 1000.0 nM
[21] = target: MAP kinase-activated protein kinase 2 (Homo sapiens) (UniProt P49137); settings: Compound concentration 1000.0 nM
[22] = target: Serine/threonine-protein kinase pim-2 (Homo sapiens) (UniProt Q9P1W9); settings: Compound concentration 1000.0 nM
[23] = target: Serine/threonine-protein kinase RIO2 (Homo sapiens) (UniProt Q9BVS4); settings: Compound concentration 1000.0 nM
[24] = target: Ribosomal protein S6 kinase alpha-5 (Homo sapiens) (UniProt O75582); settings: Compound concentration 1000.0 nM
[25] = target: STE20/SPS1-related proline-alanine-rich protein kinase (Homo sapiens) (UniProt Q9UEW8); settings: Compound concentration 1000.0 nM
[26] = target: Tyrosine-protein kinase Tec (Homo sapiens) (UniProt P42680); settings: Compound concentration 1000.0 nM
[27] = target: Angiopoietin-1 receptor (Homo sapiens) (UniProt Q02763); settings: Compound concentration 1000.0 nM
[28] = target: Delta-type opioid receptor (Homo sapiens) (UniProt P41143); settings: Compound concentration 10.0 uM
Sequence of Delta-type opioid receptor (Homo sapiens) (P41143 whole entry): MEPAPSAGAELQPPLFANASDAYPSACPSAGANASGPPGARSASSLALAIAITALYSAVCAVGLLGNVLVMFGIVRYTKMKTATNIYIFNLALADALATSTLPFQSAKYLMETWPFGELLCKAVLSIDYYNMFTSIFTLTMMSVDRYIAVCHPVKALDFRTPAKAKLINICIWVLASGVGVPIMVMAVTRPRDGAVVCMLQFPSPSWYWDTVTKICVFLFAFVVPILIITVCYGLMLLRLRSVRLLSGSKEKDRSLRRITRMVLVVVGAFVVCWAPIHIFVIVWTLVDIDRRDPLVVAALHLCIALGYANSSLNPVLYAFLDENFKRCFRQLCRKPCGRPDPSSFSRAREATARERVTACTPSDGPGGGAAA

Sequence of Ribosomal protein S6 kinase alpha-5 (Homo sapiens) (O75582 whole entry, looked up): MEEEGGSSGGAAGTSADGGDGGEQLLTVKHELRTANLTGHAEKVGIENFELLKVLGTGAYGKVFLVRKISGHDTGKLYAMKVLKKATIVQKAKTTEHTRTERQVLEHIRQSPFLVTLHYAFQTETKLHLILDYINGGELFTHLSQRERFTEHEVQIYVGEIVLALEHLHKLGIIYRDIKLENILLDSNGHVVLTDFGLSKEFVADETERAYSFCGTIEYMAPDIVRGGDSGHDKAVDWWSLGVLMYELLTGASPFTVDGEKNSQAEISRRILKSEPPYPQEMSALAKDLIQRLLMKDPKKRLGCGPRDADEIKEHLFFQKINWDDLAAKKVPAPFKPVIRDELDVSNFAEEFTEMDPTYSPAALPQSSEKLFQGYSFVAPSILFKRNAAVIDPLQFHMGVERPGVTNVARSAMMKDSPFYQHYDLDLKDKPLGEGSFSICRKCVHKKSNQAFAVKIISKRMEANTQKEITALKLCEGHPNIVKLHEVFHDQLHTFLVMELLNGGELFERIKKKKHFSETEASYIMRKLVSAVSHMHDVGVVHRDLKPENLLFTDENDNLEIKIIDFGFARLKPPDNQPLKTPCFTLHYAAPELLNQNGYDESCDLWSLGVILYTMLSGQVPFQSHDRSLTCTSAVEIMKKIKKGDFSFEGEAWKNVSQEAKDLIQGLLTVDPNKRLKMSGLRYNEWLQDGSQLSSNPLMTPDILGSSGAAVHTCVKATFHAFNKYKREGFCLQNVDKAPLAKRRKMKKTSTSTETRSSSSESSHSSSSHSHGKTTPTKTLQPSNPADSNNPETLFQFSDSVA
Sequence of Cyclin-dependent kinase 11B (Homo sapiens) (P21127 whole entry): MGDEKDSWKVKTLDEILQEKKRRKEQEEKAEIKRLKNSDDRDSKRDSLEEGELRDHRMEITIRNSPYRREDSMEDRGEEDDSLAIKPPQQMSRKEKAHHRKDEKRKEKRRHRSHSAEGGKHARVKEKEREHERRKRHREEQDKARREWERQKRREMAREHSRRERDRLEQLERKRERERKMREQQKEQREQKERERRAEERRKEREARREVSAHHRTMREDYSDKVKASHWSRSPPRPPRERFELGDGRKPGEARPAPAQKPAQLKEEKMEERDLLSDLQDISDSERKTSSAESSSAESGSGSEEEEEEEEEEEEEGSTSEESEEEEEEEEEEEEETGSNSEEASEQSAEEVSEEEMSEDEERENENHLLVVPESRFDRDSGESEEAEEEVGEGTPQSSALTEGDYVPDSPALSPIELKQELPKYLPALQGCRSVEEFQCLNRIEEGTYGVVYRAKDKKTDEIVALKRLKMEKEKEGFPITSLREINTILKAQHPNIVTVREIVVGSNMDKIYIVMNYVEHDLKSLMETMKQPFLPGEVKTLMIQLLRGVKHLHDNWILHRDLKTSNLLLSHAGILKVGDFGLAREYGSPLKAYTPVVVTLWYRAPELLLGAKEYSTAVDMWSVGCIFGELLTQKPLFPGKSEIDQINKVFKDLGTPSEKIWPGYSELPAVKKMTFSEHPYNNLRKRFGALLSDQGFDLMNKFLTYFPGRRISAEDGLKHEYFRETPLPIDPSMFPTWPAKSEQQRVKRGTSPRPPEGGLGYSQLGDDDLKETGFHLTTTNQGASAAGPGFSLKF
Sequence of Beta-1 adrenergic receptor (Homo sapiens) (P08588 whole entry, looked up): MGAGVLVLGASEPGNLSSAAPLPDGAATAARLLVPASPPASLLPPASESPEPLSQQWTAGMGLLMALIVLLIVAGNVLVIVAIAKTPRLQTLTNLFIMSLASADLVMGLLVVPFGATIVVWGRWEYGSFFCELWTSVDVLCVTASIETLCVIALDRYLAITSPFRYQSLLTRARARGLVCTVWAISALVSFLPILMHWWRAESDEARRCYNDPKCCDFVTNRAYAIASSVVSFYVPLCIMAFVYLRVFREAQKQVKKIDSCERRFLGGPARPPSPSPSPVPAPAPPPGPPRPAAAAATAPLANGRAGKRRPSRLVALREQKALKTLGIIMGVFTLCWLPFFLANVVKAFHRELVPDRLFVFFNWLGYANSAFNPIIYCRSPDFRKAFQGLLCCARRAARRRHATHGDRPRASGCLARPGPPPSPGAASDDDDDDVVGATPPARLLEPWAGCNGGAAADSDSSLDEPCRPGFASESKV
Sequence of Cyclin-dependent kinase 3 (Homo sapiens) (Q00526 whole entry, looked up): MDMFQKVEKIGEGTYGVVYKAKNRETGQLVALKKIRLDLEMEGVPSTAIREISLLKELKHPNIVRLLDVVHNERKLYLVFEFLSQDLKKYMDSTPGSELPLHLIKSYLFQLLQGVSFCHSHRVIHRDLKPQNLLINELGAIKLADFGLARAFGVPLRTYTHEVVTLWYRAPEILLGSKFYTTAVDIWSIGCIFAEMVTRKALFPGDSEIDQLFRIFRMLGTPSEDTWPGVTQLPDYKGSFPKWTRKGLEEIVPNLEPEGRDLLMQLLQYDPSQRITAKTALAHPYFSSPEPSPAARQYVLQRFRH
Sequence of Vascular endothelial growth factor receptor 1 (Homo sapiens) (P17948 whole entry): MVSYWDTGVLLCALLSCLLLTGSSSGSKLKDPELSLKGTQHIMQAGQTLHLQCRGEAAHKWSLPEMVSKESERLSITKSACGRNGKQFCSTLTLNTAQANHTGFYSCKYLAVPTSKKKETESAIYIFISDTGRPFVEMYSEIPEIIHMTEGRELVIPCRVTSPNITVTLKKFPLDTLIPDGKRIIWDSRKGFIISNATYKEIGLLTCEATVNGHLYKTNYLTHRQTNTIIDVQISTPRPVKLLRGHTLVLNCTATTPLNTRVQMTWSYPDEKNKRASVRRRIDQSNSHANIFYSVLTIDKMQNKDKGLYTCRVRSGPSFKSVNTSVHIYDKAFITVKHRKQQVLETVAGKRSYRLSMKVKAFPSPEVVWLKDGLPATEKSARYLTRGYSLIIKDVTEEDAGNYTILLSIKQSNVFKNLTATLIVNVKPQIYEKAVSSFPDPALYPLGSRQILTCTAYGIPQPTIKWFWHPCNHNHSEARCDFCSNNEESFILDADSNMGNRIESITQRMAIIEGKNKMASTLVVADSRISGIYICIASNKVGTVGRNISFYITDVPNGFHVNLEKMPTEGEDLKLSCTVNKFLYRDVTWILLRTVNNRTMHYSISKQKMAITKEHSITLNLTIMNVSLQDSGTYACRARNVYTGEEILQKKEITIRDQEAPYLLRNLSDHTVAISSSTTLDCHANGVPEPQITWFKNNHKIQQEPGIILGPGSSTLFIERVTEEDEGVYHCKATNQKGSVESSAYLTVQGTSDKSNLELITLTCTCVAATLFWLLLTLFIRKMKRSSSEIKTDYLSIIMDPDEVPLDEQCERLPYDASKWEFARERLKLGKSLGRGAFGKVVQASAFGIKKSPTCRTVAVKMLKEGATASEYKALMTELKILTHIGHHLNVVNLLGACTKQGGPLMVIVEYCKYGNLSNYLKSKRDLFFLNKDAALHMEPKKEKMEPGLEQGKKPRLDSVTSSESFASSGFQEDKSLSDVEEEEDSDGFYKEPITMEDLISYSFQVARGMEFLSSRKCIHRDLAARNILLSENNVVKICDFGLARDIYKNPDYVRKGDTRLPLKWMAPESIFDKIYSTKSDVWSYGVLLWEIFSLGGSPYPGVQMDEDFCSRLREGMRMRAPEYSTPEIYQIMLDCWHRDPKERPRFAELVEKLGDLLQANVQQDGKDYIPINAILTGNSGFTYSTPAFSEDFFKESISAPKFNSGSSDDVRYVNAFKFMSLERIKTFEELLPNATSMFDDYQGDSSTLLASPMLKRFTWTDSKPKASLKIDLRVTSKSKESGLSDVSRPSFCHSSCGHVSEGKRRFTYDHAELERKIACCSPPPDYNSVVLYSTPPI
Sequence of Serine/threonine-protein kinase RIO2 (Homo sapiens) (Q9BVS4 whole entry, looked up): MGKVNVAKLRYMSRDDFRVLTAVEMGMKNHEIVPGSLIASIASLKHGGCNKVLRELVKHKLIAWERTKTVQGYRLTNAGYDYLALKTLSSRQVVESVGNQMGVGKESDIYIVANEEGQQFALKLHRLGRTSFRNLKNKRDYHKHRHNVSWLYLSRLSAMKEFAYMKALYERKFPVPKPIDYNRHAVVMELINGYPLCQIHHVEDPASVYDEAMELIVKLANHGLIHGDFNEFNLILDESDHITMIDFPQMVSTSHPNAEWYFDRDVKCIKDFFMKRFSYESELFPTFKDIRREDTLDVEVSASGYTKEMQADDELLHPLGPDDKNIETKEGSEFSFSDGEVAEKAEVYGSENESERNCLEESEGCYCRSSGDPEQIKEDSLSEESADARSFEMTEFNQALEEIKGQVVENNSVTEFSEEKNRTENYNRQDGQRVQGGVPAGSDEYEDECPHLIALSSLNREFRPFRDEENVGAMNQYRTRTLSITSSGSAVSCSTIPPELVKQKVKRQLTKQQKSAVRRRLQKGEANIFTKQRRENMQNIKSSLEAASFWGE
Sequence of Serine/threonine-protein kinase pim-2 (Homo sapiens) (Q9P1W9 whole entry, looked up): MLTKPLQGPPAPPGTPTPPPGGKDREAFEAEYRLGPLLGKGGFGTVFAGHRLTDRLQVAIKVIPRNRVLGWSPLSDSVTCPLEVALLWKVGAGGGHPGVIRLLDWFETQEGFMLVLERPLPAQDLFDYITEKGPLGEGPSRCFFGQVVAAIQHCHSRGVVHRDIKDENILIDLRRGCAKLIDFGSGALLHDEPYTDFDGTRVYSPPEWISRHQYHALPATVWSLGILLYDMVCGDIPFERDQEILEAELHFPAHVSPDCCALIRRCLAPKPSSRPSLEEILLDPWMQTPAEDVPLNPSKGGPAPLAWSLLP

Compound	IC50 (Bcl-2-like protein 1)	% Inhibition of Control Specific Binding (Mean n=2) [1]	% Inhibition of Control Specific Binding (Mean n=2) [2]	% Inhibition of Control Specific Binding (Mean n=2) [3]	% Inhibition of Control Specific Binding (Mean n=2) [4]	% Inhibition of Control Specific Binding (Mean n=2) [5]	inhibition at 60 min, 10 µM (Na+ channel (site 2))	residual activity [6]	residual activity [7]	residual activity [8]	residual activity [9]	residual activity [10]	residual activity [11]	residual activity [12]	residual activity [13]	residual activity [14]	residual activity [15]	residual activity [16]	residual activity [17]	residual activity [18]	also measured
O=C(NS(=O)(=O)c1ccc(NCC2CCOCC2)c([N+](=O)[O-])c1)c1ccc(N2CCN(Cc3ccc(C(F)(F)F)cc3-c3ccc(Cl)cc3)CC2)cc1Oc1cnc2[nH]ccc2c1 [A-1210227]	> 25 µM (not active)	13.6%	-11.6%	-8.2%	6.4%	-1.6%	-8.2%	98%	100%	97%	100%	100%	100%	100%	100%	100%	91%	85%	84%	99%	residual activity [19]: 100%; residual activity [20]: 88%; residual activity [21]: 81%; residual activity [22]: 73%; residual activity [23]: 90%; residual activity [24]: 97%; residual activity [25]: 89%; residual activity [26]: 71%; residual activity [27]: 80%; inhibition [28]: -3.92%
CO[C@H]1CC[C@H](CNc2ccc(S(=O)(=O)NC(=O)c3ccc(N4CCN(CC5=C(c6ccc(Cl)cc6)CC(C)(C)CC5)CC4)cc3Oc3cnc4[nH]ccc4c3)cc2[N+](=O)[O-])CC1 [A-1211212]	0.753 µM (not active)	9.1%	-20.1%	-10.9%	0.7%	8.6%	-2.3%	78%	85%	98%	100%	100%	90%	85%	100%	85%	85%	88%	61%	100%	residual activity [19]: 87%; residual activity [20]: 100%; residual activity [21]: 93%; residual activity [22]: 88%; residual activity [23]: 89%; residual activity [24]: 65%; residual activity [25]: 100%; residual activity [26]: 74%; residual activity [27]: 69%; inhibition [28]: 5.68%
